Measurements reported in US4476122A, “Alkyloximes of 7-amino-thiazolyl-acetamido-cephalosporanic acids” (Roussel Uclaf, priority 1976, dated 1984).
Converted amounts (≈) assume the structure as drawn. Like-named read-outs stand apart in the source and are kept apart here.

Legend:
[1] = tested on: Escherichia Coli Resistant Tetracycline ATCC 11 303; experiment: MIC, liquid medium dilution; assay type: cell-based
Experimental: (§1) The method used was a dilution of a liquid medium where a series of tubes received the same quantity of a sterile nutritive media and increasing doses of the test compounds were placed therein. Then each tube was seeded with a bacterial strain and was incubated for 24 or 48 hours at 37° C. in an oven. The increasing inhibition was determined by transillumination to determine the minimum inhibiting concentration (MIC in μg/ml) and the results are reported in the following Tables.

[2] = tested on: Escherichia Coli Sensitive Tetracycline ATCC 9 637; experiment: MIC, liquid medium dilution; assay type: cell-based
Experimental: as §1

[3] = tested on: Streptococcus faecalis 99 F 74; experiment: MIC, liquid medium dilution; assay type: cell-based; conditions: Enterococcus faecalis
Experimental: as §1

[4] = tested on: Staphylococcus aureus exp. n° 54 146; experiment: MIC, liquid medium dilution; assay type: cell-based
Experimental: as §1

[5] = tested on: Streptococcus faecalis 5 432; experiment: MIC, liquid medium dilution; assay type: cell-based
Experimental: as §1

[6] = tested on: Escherichia Coli Resistant Gentamicine, Tobramycine R 55 123 D; experiment: MIC, liquid medium dilution; assay type: cell-based
Experimental: as §1

Enterobacter cloacae 681 = experiment: MIC, liquid medium dilution; assay type: cell-based
Experimental: as §1

[7] = tested on: Streptococcus pyogenes A 561; experiment: MIC, liquid medium dilution; assay type: cell-based
Experimental: as §1

[8] = tested on: Escherichia Coli Exp. TO26 B6; experiment: MIC, liquid medium dilution; assay type: cell-based
Experimental: as §1

[9] = tested on: Klebsiella pneumoniae Exp. 52 145; experiment: MIC, liquid medium dilution; assay type: cell-based
Experimental: as §1

[10] = tested on: Staphylococcus aureus UC 1 128 Pen-Resistant; experiment: MIC, liquid medium dilution; assay type: cell-based
Experimental: as §1

[11] = tested on: Staphylococcus aureus ATCC 6 538 Pen-Sensitive; experiment: MIC, liquid medium dilution; assay type: cell-based
Experimental: as §1

[12] = tested on: Serratia Resistant Gentamicine 2 532; experiment: MIC, liquid medium dilution; assay type: cell-based
Experimental: as §1

[13] = tested on: Salmonella typhimurium 420; experiment: MIC, liquid medium dilution; assay type: cell-based; conditions: Salmonella enterica
Experimental: as §1

Providencia Du 48 = experiment: MIC, liquid medium dilution; assay type: cell-based
Experimental: as §1

[14] = tested on: Proteus mirabilis (indol-) A 235; experiment: MIC, liquid medium dilution; assay type: cell-based
Experimental: as §1

[15] = tested on: Proteus vulgaris (indol+) A 232; experiment: MIC, liquid medium dilution; assay type: cell-based
Experimental: as §1

[16] = tested on: Bacillus subtilis ATCC 6 633; experiment: MIC, liquid medium dilution; assay type: cell-based
Experimental: as §1

[17] = tested on: Klebsiella pneumoniae 2 536 Resistant Gentamicine; experiment: MIC, liquid medium dilution; assay type: cell-based
Experimental: as §1

[18] = tested on: Escherichia coli (T) O26 B6; experiment: Experimental infection with Escherichia coli (T) O26 B6 in mice; assay type: in vivo; conditions: s. c.
Experimental: The products of Example 6 and 10 were studied for their activity against an experimental infection of Escherichia coli in groups of 10 male mice weighing about 22 g. The mice received an intraperitoneal injection of 0.5 ml of a 24 hour old culture in a nutritive media of Escherichia coli (T) O26 B6 of the Pasteur Institute diluted 1/5.5 with distilled water. The test product was administered subcutaneously or orally 1 hour and 5 and 24 hours after the infection and the number of dead was determined during 8 days.

[19] = tested on: Klebsiella pneumonia 52,145; experiment: Experimental infection with Klebsiella pneumonia in mice (C); assay type: in vivo; conditions: subcutaneous
Experimental: The activity of the products of Examples 4 and 6 was studied on an experimental infection of Klebsiella pneumonia in mice. Groups of 10 male mice weighing 21 g were infected by an intraperitoneal injection of 0.5 ml of a culture in nutrive media of Klebsiella pneumonia 52,145 diluted by 1/1000 with distilled water. The products were administered subcutaneously 30 minutes, 4, 8, 24 and 32 hours after the injection and the number of dead mice was determined during 10th days.

[20] = Enterococcus faecalis, 5432, 24 h
[21] = Enterococcus faecalis, 5432, 48 h
[22] = Enterobacter cloacae, 681, 48 h

CO/N=C(\C(=O)NC1C(=O)N2C(C(=O)O)=C(CSC(C)=O)CSC12)c1csc(N)n1 (stereo not drawn) [Example 6, 3-acetylthiomethyl-7-[{2-(2-amino-4-thiazolyl)-2-methoxyiminoacetyl}amino]-ceph-3-eme-4-carboxylic acid]
MIC ([1]; ATCC11, 24 h, read-out: MIC): 0.1 µg/mL (≈ 0.212 µM)
MIC ([1]; ATCC11, 48 h, read-out: MIC): 0.1 µg/mL (≈ 0.212 µM)
MIC ([2]; ATCC9, 24 h, read-out: MIC): 0.6 µg/mL (≈ 1.27 µM)
MIC ([2]; ATCC9, 48 h): 0.6 µg/mL (≈ 1.27 µM)
MIC ([3]; 99F74, 24 h): 5 µg/mL (≈ 10.6 µM)
MIC ([3]; 99F74, 48 h): > 40 µg/mL
MIC ([4]; 24 h): 2 µg/mL (≈ 4.24 µM)
MIC ([4]; 48 h): 2 µg/mL (≈ 4.24 µM)
MIC [5, 20]: 5 µg/mL (≈ 10.6 µM)
MIC [5, 21]: 5 µg/mL (≈ 10.6 µM)
MIC ([6]; 24 h, read-out: MIC): 0.6 µg/mL (≈ 1.27 µM)
MIC ([6]; 48 h): 0.6 µg/mL (≈ 1.27 µM)
MIC (Enterobacter cloacae 681; Enterobacter cloacae, 681, 24 h, read-out: MIC): 10 µg/mL (≈ 21.2 µM)
MIC (Enterobacter cloacae 681; [22]): 20 µg/mL (≈ 42.4 µM)
MIC ([7]; A561, 24 h, read-out: MIC): ≤ 0.02 µg/mL
MIC ([7]; A561, 48 h, read-out: MIC): ≤ 0.02 µg/mL
MIC ([8]; 24 h): 0.4 µg/mL (≈ 0.848 µM)
MIC ([8]; 48 h): 0.4 µg/mL (≈ 0.848 µM)
MIC ([9]; EXP.52145, 24 h, read-out: MIC): 0.1 µg/mL (≈ 0.212 µM)
MIC ([9]; EXP.52145, 48 h, read-out: MIC): 0.1 µg/mL (≈ 0.212 µM)
MIC ([10]; UC1, 24 h): 5 µg/mL (≈ 10.6 µM)
MIC ([10]; UC1, 48 h): 5 µg/mL (≈ 10.6 µM)
MIC ([11]; ATCC6, 24 h): 2 µg/mL (≈ 4.24 µM)
MIC ([11]; ATCC6, 48 h): 2 µg/mL (≈ 4.24 µM)
MIC ([12]; 24 h): 1 µg/mL (≈ 2.12 µM)
MIC ([12]; 48 h): 2 µg/mL (≈ 4.24 µM)
MIC ([13]; 24 h): 0.4 µg/mL (≈ 0.848 µM)
MIC ([13]; 48 h): 0.4 µg/mL (≈ 0.848 µM)
MIC (Providencia Du 48; DU48, 24 h, read-out: MIC): 10 µg/mL (≈ 21.2 µM)
MIC (Providencia Du 48; DU48, 48 h, read-out: MIC): 10 µg/mL (≈ 21.2 µM)
MIC ([14]; 24 h): 0.05 µg/mL (≈ 0.106 µM)
MIC ([14]; 48 h, read-out: MIC): 0.1 µg/mL (≈ 0.212 µM)
MIC ([15]; 24 h): 5 µg/mL (≈ 10.6 µM)
MIC ([15]; 48 h, read-out: MIC): 10 µg/mL (≈ 21.2 µM)
MIC ([16]; ATCC6, 24 h): 1 µg/mL (≈ 2.12 µM)
MIC ([16]; ATCC6, 48 h): 2 µg/mL (≈ 4.24 µM)
MIC ([17]; 24 h): 1 µg/mL (≈ 2.12 µM)
MIC ([17]; 48 h): 2 µg/mL (≈ 4.24 µM)
Mice surviving on the 8th day ([18]; 3 × 0,1 mg): 5/10
Mortality after 5 H 30 (number of dead of 10) ([18]; 3 × 0,1 mg): 1
Mortality after 21 H 30 (number of dead of 10) ([18]; 3 × 0,1 mg): 1
Mortality after 24 H (number of dead of 10) ([18]; 3 × 0,1 mg): 1
Mortality after 47 H (number of dead of 10) ([18]; 3 × 0,1 mg): 2
Mice surviving on the 8th day ([18]; 3 × 0,2 mg): 7/10
Mortality after 21 H 30 (number of dead of 10) ([18]; 3 × 0,2 mg): 1
Mortality after 47 H (number of dead of 10) ([18]; 3 × 0,2 mg): 1
Mortality after 70 H (number of dead of 10) ([18]; 3 × 0,2 mg): 1
Mice surviving on the 8th day ([18]; 3 × 0,3 mg): 10/10
Mice surviving on the 8th day ([18]; 3 × 0,05 mg): 4/10
Mortality after 5 J (number of dead of 10) ([18]; 3 × 0,05 mg): 1
Mortality after 21 H 30 (number of dead of 10) ([18]; 3 × 0,05 mg): 4
Mortality after 54 H (number of dead of 10) ([18]; 3 × 0,05 mg): 1
Mice alive on the 10th day ([19]; 5 × 0,5 mg): 10/10
Mice alive on the 10th day ([19]; 5 × 0,25 mg): 10/10
Mice alive on the 10th day ([19]; 5 × 1 mg): 10/10

CO/N=C(/C(=O)NC1C(=O)N2C(C(=O)O)=C(CSC(C)=O)CSC12)c1csc(N)n1 (stereo not drawn) [Example 17, 3-acetylthiomethyl-7-[{2-(2-amino-4-thiazolyl)-2-methoxyiminoacetyl}amino]-ceph-3-eme-4-carboxylic acid]
MIC ([1]; ATCC11, 24 h): 5 µg/mL (≈ 10.6 µM)
MIC ([1]; ATCC11, 48 h): 5 µg/mL (≈ 10.6 µM)
MIC ([2]; ATCC9, 24 h): 40 µg/mL (≈ 84.8 µM)
MIC ([2]; ATCC9, 48 h): 40 µg/mL (≈ 84.8 µM)
MIC ([3]; 99F74, 24 h): > 100 µg/mL
MIC ([3]; 99F74, 48 h): > 100 µg/mL
MIC ([4]; 24 h): 40 µg/mL (≈ 84.8 µM)
MIC ([4]; 48 h): 40 µg/mL (≈ 84.8 µM)
MIC [5, 20]: > 100 µg/mL
MIC [5, 21]: > 100 µg/mL
MIC ([6]; 24 h): 40 µg/mL (≈ 84.8 µM)
MIC ([6]; 48 h): 40 µg/mL (≈ 84.8 µM)
MIC (Enterobacter cloacae 681; Enterobacter cloacae, 681, 24 h): 40 µg/mL (≈ 84.8 µM)
MIC (Enterobacter cloacae 681; [22]): 100 µg/mL (≈ 212 µM)
MIC ([7]; A561, 24 h): 0.2 µg/mL (≈ 0.424 µM)
MIC ([7]; A561, 48 h): 0.2 µg/mL (≈ 0.424 µM)
MIC ([8]; 24 h): 20 µg/mL (≈ 42.4 µM)
MIC ([8]; 48 h): 40 µg/mL (≈ 84.8 µM)
MIC ([9]; EXP.52145, 24 h): 40 µg/mL (≈ 84.8 µM)
MIC ([9]; EXP.52145, 48 h): 40 µg/mL (≈ 84.8 µM)
MIC ([10]; UC1, 24 h): 40 µg/mL (≈ 84.8 µM)
MIC ([10]; UC1, 48 h): 100 µg/mL (≈ 212 µM)
MIC ([11]; ATCC6, 24 h): 20 µg/mL (≈ 42.4 µM)
MIC ([11]; ATCC6, 48 h): 20 µg/mL (≈ 42.4 µM)
MIC ([12]; 24 h): > 100 µg/mL
MIC ([12]; 48 h): > 100 µg/mL
MIC ([13]; 24 h): 40 µg/mL (≈ 84.8 µM)
MIC ([13]; 48 h): 40 µg/mL (≈ 84.8 µM)
MIC (Providencia Du 48; DU48, 24 h): > 100 µg/mL
MIC (Providencia Du 48; DU48, 48 h): > 100 µg/mL
MIC ([14]; 24 h): 5 µg/mL (≈ 10.6 µM)
MIC ([14]; 48 h): 40 µg/mL (≈ 84.8 µM)
MIC ([15]; 24 h): > 100 µg/mL
MIC ([15]; 48 h): > 100 µg/mL
MIC ([16]; ATCC6, 24 h): 5 µg/mL (≈ 10.6 µM)
MIC ([16]; ATCC6, 48 h): 20 µg/mL (≈ 42.4 µM)
MIC ([17]; 24 h): > 100 µg/mL
MIC ([17]; 48 h): > 100 µg/mL
